Reference: US6113941A, “Substained release microcapsule of physiologically active compound which is slightly water soluble at pH 6 to 8” (Takeda Chemical Industries, Ltd., priority 1994, dated 2000)

Tests used:
[1] = Solubility of Compound A at the pH in the small intestine (stated in words); assay type: physicochemical
[2] = Oral administration to rats, plasma concentration and absorption ratio (Example 1, Table 1); assay type: in vivo; conditions: rat, SD-strain male rats, 20 mg/kg, suspended in 0.5% methylcellulose
Description: The antiulcer drug 2-[[[3-methyl-4-(2,2,3,3,-tetrafluoropropoxy)-2-pyridyl]methyl]thio]benzimidazole (hereinafter sometimes referred to as Compound A) (400 mg) and lactic acid/glycollic acid copolymer (lactic acid/glycollic acid=50/50, average molecular weight calculated as polystyrene=5400) (3.6 g) were dissolved in dichloromethane (5 ml) to prepare an o/w type emulsion using a homogenizer in an aqueous solution (800 ml) of 0.1% polyvinyl alcohol (PVA). Then, the emulsion was slowly stirred with a conventional propeller stirrer. After dichloromethane vaporized and the microcapsules hardened, the microcapsules were collected by centrifugation and at the same time washed with purified water. The collected microcapsules were freeze-dried for a day to obtain powdery microcapsules.
The drug content in the total amount of the microcapsules was 10.0%, and the entrapment was 100%. The microcapsules were suspended in 0.5% methylcellulose, and orally administered to SD-strain male rats (body weight: 250 g) in a dose of 20 mg/kg. A suspension of the drug alone in 0.5% methylcellulose was also administered for comparison. In both cases, the plasma concentration of the drug and the absorption ratio were determined.

[3] = Oral administration to rats, plasma concentration and absorption ratio (Example 2, Table 2); assay type: in vivo, SD-strain male rats; conditions: rat, 20 mg/kg
Description: From this emulsion, a w/o/w type emulsion was prepared using a homogenizer in 0.5% PVA aqueous solution (1000 ml). Then, the emulsion was slowly stirred with a conventional propeller stirrer for 3 hours. After dichloromethane vaporized while w/o type microcapsules hardened, the microcapsules were centrifuged and collected and at the same time washed with purified water. The collected microcapsules were freeze-dried for a day to obtain powdery microcapsules.
The microcapsules were suspended in 0.5% methylcellulose, and orally administered to SD-strain male rats (body weight: 250 g) in a dose of 20 mg/kg. For comparative purposes, a suspension of the drug alone in 0.5% methylcellulose was also administered. In both cases, the plasma concentration of the drug and the absorption ratio were determined.

[4] = pH no higher than 3; cited from earlier work

Cc1c(OCC(F)(F)C(F)F)ccnc1CSc1nc2ccccc2[nH]1 [Compound A, 2-[[[3-methyl-4-(2,2,3,3,-tetrafluoropropoxy)-2-pyridyl]methyl]thio]benzimidazole]
solubility [1]: very low solubility | Fa ([2]; in vivo): 5.4% | Cmax ([2]; plasma, read-out: Cmax (peak blood level)): 218 ng/mL | Tmax ([2]; plasma, read-out: Tmax (time required to obtain the peak blood level)): 15 min | Fa ([3]; in vivo): 5.4% | Cmax ([3]; plasma): 218 ng/mL | Tmax ([3]; plasma): 15 min

COc1ccc2c(c1)c(CC(=O)O)c(C)n2C(=O)c1ccc(Cl)cc1 [indomethacin]
solubility in water [4]: not readily soluble
